Where two headings read alike, the source gives them in different places.
What was measured:
Caspase-1 = Caspase-1 (Homo sapiens (Human), UniProt P29466); assay: Caspase-1 Inhibitor Drug Screening Kit, fluorometric (AFC liberation); format: biochemical; conditions: for IC50: 30-minute incubation at 37° C., approximations of the average values, read-out: Caspase enzymatic activity, IC50 (uM) Caspase 1
Protocol: (§1) The level of inhibition of caspase-1, -3, -5, -7, -9 activity was determined by comparison of the relative fluorescence intensity in samples with or without the compound.

Caspase-3 = Caspase-3 (Homo sapiens (Human), UniProt P42574); assay: Caspase-3 Inhibitor Drug Screening Kit, fluorometric (AFC liberation); format: biochemical
Protocol: as §1

Caspase-5 = Caspase-5 (Homo sapiens (Human), UniProt P51878); assay: Caspase-5 Inhibitor Drug Screening Kit, fluorometric (AFC liberation); format: biochemical; conditions: 30-minute incubation at 37° C.; approximations of the average values; read-out: Caspase enzymatic activity, IC50 (uM) Caspase 5
Protocol: as §1

Caspase-7 = Caspase-7 (Homo sapiens (Human), UniProt P55210); assay: Caspase-7 Inhibitor Drug Screening Kit, fluorometric (AFC liberation); format: biochemical
Protocol: as §1

Caspase-9 = Caspase-9 (Homo sapiens (Human), UniProt P55211); assay: Caspase-9 Inhibitor Drug Screening Kit, fluorometric (AFC liberation); format: biochemical
Protocol: as §1

[1] = test system: proteolytic cleavage of PARP (poly ADP-ribose polymerase) in Hela cells; assay: Inhibition of staurosporine-induced PARP cleavage in live Hela cells; format: cell-based; conditions: for inhibition at 50 µM: Homo sapiens, HeLa
Protocol: To test the efficacy of caspase-3 inhibitors at the cellular level, the ability of selected compounds to inhibit the proteolytic cleavage of PARP (poly ADP-ribose polymerase) was evaluated in live Hela cells.
Briefly, in this assay Hela cells are seeded in 96 well plates and incubated for 4 hours with staurosporine, a well characterized inducer of apoptosis, alone or together with different concentrations of compound (50, 25, 10 and 3 uM). After formaldehyde-based fixation, the cells are stained with a fluorescein-labeled anti-cleaved PARP antibody (Cell signaling, Cat#: 9547) and counterstained with Hoechst33342 (Invitrogen, Cat#: H3570) to mark all nuclei. Fluorescence images are taken on a Cellomics™ microscope system (Thermo Scientific, Pittsburgh, USA) with the Hoechst stain in the blue channel and the cleaved PARP antibody stain in the green channel. The percentage of cleaved PARP positive cells is determined by calculating the ratio between nuclei with a cleaved PARP antibody staining above a certain threshold and all (Hoechst positive) nuclei. The efficacy of caspase-3 inhibition is determined by calculating the ratio between cleaved PARP positive cells after staurosporine incubation together with compounds and staurosporine incubation without compounds.

Glo3/7 = Glo3/7 assay; format: biochemical
EAE in C57BL/6 mice = assay: Chronic EAE mouse model (MOG35-55 immunization), daily clinical score and body weight; format: in vivo; parameters: key to Delay in onset of the disease / Reduction in severity of the disease / Reduction in body weight loss: +++: high level improvement; ++: moderate improvement; +: small improvement; −: no improvement; conditions: for Delay in onset of the disease / Reduction in body weight loss / Reduction in severity of the disease: average overall effects on the EAE model, i.p.
Excerpt: The aim of this study was to verify the effectiveness of compounds in a chronic mouse animal model of EAE. EAE is a good proof-of-principle model of neurodegeneration since it encompasses degeneration or destruction of practically all the cells in the central nervous system, includes most major immunomodulatory components, and is able to maintain normal innate regenerative functions in the animal. This is a standard model (Antel J P et al., J Neurosci Res. 1997, 50: 345-353) used mainly to mimic the course evolution of Multiple Sclerosis (MS) in humans, and is commonly used for studying disease mechanisms and testing potential therapies. EAE is induced by immunization with myelin proteins, leading to development of myelin-specific T cells. These autoreactive T cells traffic into CNS parenchyma where they initiate an inflammatory cascade through recruitment of other cells such as monocytes and neutrophils. Accumulation of immune cells within CNS leads to myelin damage, axonal loss and clinical deficit in affected animals. EAE can be induced in a variety of species and strains of animals [mice, Rat, marmoset monkey, rhesus macaques] using various CNS antigens [Myelin Oligodendrocyte Glycoprotein (MOG), proteolipid protein (PLP) and myelin basic protein (MBP)]. Seven to 8 week old female C57BL/6 mice were purchased from Charles River Laboratories, and housed at MISPRO™ animal facility for one week before experimentation for adaptation to the new environment. All proper animal experimentation and ethics approvals were obtained prior to the start of any experiments. Mice were immunized subcutaneously with 100 μg of MOG35-55 (Sheldon Biotechnology Centre, McGill University) in CFA containing 5 mg/ml of desiccated (killed and dried) Mycobacterium tuberculosis H37Ra (Difco, Inc), at two sites on the back. The mice were then injected with 200 ng of pertussis toxin (List Biological Laboratories, Inc) in PBS intraperitoneally on days 0 and 2 using 25 gauge needles and scored daily using an EAE clinical scale as detailed below (Touil T et al., J Neurol Sci. 2008, 271:191-202; Antel J P et al., 1997, supra; Owens T et al., Curr Pharm Des. 2005, 1:1031-1037).
EAE was clinically assessed throughout the experiments by daily scoring using a scale from 0 to 5 as follows: partial limp tail, 0.5; full limp tail, 1; limp tail and waddling gait, 1.5; paralysis of one hind limb, 2; paralysis of one hind limb and partial paralysis of other hind limb, 2.5; paralysis of both hind limbs, 3; ascending paralysis, 3.5; paralysis of trunk, 4; moribund, 4.5; death, 5. In all the EAE models a body weight loss is always associated with the clinical signs. This body weight loss is associated with the loss of the function and the paralysis of the muscle (atrophy inducing loss of weight). For animals showing a clinical sign of 2 or more, the food and the water were presented inside the cage to facilitate eating and drinking.
At the onset of clinical signs of EAE, the mice were treated with 200 μl of Compound 51, 53, 57, 59, 101, 104, 105, 111 or 123 dissolved in 2.5% Dimethyl sulfoxide (DMSO) in PBS, while placebo groups were treated with 2.5% Dimethyl sulfoxide (DMSO) in PBS only, by intraperitoneal injection at different time of the clinical evolution.

[2] = 30-minute incubation at 37° C., approximations of the average values, read-out: Caspase enzymatic activity, IC50 (uM) Caspase 3
[3] = 30-minute incubation at 37° C., approximations of the average values, read-out: Caspase enzymatic activity, IC50 (uM) Caspase 7
[4] = 30-minute incubation at 37° C., approximations of the average values, read-out: Caspase enzymatic activity, IC50 (uM) Caspase 9
[5] = 4 h, read-out: % inhibition of PARP cleavage at 50 uM compound, Hela cells, staurosporine 4 hours, 50 uM compound
[6] = FIG. 1, i.p. from day 10 to 16 post immunization, versus placebo
[7] = FIG. 2, i.p. from day 10 to 16 post immunization, versus placebo

Caspase-1, sequence (P29466 120-404): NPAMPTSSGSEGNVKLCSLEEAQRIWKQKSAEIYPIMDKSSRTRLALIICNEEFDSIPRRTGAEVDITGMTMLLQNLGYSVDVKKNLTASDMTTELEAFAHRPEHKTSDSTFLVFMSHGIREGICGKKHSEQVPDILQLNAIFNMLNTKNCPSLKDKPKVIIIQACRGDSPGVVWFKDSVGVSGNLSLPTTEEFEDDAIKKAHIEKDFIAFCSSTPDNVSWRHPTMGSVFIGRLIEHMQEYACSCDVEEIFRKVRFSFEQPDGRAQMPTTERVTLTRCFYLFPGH
Caspase-9, sequence (P55211 whole entry): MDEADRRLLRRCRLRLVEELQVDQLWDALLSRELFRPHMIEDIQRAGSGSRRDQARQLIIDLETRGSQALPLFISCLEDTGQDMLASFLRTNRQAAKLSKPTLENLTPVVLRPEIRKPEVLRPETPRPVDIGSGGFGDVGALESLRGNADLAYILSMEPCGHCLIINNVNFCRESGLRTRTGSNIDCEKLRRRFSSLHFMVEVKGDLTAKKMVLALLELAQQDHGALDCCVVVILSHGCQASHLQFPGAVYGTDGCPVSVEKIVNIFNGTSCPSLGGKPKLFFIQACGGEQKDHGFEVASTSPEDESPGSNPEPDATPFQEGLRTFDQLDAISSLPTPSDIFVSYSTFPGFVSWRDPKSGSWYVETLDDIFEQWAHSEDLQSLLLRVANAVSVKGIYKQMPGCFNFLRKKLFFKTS
Caspase-5, sequence (P51878 137-434): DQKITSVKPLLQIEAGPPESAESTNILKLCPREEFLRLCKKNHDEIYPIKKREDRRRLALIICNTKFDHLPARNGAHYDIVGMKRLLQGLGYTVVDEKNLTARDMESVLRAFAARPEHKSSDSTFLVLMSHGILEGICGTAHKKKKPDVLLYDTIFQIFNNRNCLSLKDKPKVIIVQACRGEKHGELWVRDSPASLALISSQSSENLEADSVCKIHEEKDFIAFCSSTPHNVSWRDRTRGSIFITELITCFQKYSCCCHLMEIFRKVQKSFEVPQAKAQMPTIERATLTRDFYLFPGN
Caspase-3, sequence (P42574 29-277): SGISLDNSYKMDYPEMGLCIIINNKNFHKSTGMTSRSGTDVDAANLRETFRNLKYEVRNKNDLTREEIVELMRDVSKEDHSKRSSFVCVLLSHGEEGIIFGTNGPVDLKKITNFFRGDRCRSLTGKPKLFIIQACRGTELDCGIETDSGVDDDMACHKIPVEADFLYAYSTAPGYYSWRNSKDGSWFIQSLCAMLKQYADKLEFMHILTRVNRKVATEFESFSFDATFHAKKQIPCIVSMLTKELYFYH
Caspase-7, sequence (P55210 whole entry): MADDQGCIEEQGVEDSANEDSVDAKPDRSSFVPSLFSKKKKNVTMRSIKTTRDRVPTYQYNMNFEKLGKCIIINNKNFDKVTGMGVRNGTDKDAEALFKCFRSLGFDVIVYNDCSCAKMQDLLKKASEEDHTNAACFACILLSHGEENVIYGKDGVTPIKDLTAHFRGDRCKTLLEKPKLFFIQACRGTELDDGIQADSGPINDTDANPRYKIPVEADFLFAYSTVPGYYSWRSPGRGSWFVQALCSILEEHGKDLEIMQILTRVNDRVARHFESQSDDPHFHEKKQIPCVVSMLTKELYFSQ

Compound | IC50 (Caspase-1) [µM] | IC50 (Caspase-3; [2]) [µM] | IC50 (Caspase-3; read-out: IC50 caspase-3) [µM] | IC50 (Caspase-5) [µM] | IC50 (Caspase-7; [3]) [µM] | IC50 (Caspase-7; read-out: IC50 caspase-7) [µM] | IC50 (Caspase-9; [4]) [µM] | inhibition at 50 µM [1, 5] [%] | IC50 (Glo3/7) [µM] | Cumulative clinical score (EAE in C57BL/6 mice; [6]) | Disease onset (EAE in C57BL/6 mice; [6]) | Loss of body weight (EAE in C57BL/6 mice; [6]) | clinical severity of the disease (EAE in C57BL/6 mice; [6]) | maximal clinical score (EAE in C57BL/6 mice; [6]) | Delay in onset of the disease (EAE in C57BL/6 mice) | Reduction in body weight loss (EAE in C57BL/6 mice) | Reduction in severity of the disease (EAE in C57BL/6 mice) | further results
CC(C)[C@H](NC(=O)[C@@H](NC(=O)[C@H](CC(=O)O)NC(=O)OCc1ccccc1)C1Cc2ccccc2C1)C(=O)N[C@H](/C=C/S(C)(=O)=O)CC(=O)O [Compound 57, Z-Asp-Indanylglycine-Val-Aspmethyl vinyl sulfone] | 0.9 | 0.03 | 0.03 to 0.09 | > 3.33 | 0.2 | 0.18 to 0.3 | > 3.33 | > 50 | 0.1 | reduced the cumulative score | without delaying the onset of the disease | did not show and difference compared to placebo | reduced also the clinical severity of the disease | without any significant effect on the maximal score | + | + | + | fold less efficiency against caspase-1 than against group III caspases (Caspase-1): about 29 fold
COC(=O)C[C@@H](/C=C/S(C)(=O)=O)NC(=O)[C@@H](NC(=O)[C@@H](NC(=O)[C@H](CC(=O)OC)NC(=O)OCc1ccccc1)C1Cc2ccccc2C1)C(C)C [Compound 51, Z-Asp(β-methyl)-Indanylglycine-Val-Asp(β-methyl)methyl vinyl sulfone] | > 3 | 1 | – | > 3 | > 3 | – | > 3 | > 50 | > 50 | significantly lower compared to placebo | delayed | less than the placebo | reduced significantly | significantly lower compared to placebo | ++ | +++ | ++ | –
CC(C)[C@H](NC(=O)[C@H](CCC(=O)O)NC(=O)[C@H](CC(=O)O)NC(=O)OCc1ccccc1)C(=O)N[C@H](/C=C/S(C)(=O)=O)CC(=O)O [Compound 59, Z-Asp-Glu-Val-Aspmethyl vinyl sulfone] | 1.4 | 0.02 | 0.02 | > 3.33 | 0.04 | 0.042 | 0.5 | – | 0.09 | – | – | – | – | – | ++ | ++ | ++ | IC50 (Caspase-9; read-out: IC50 caspase-9): 0.509 µM; effectivity in inhibiting PARP cleavage ([1]; Hela cells, staurosporine): showing effectivity especially relative to DEVD-fmk
COC(=O)C[C@@H](/C=C/S(C)(=O)=O)NC(=O)[C@@H](NC(=O)[C@@H](NC(=O)[C@H](CC(=O)OC)NC(=O)OCc1ccccc1)c1ccccc1)C(C)C [Compound 101, Z-Asp(β-methyl)-phenylglycine-Val-Asp(β-methyl)methyl vinyl sulfone] | > 3.33 | > 3.33 | – | > 3.33 | > 3.33 | – | > 3.33 | 40 | 20 | – | – | – | – | – | + | ++ | + | inhibition at 50 µM ([1]; Hela cells, 50 uM, read-out: % of inhibition with compound relative to DEVDFMK): 45%; Disease onset (EAE in C57BL/6 mice; [7]): delayed; Loss of body weight (EAE in C57BL/6 mice; [7]): less than placebo; severity of the disease (EAE in C57BL/6 mice; [7]): reduced significantly at the early stage of the disease; Loss of body weight (EAE in C57BL/6 mice; FIG. 3, i.p. from day 14 to 19 post immunization, versus placebo): less than in the placebo group
